Data on one compound can be found in US20240415801A1, “Methods and Compositions for Treating Fibroids” (Lundquist Institute for Biomedical Innovation at …, priority 2023, published 2024).

One assay deals with fibroid xenografts. Kind of assay: Xenograft mouse fibroid model, tumor weight (Example 2). It counts as in vivo, ovariectomized CB-17 SCID/Beige mice. The note with it: 5 mg/kg i.p. (every other day / three times per week), two months, vs matched controls. From the text:
Portions of uterine fibroids (intramural, 2-5 cm in diameters) (n=13) were obtained from patients at Harbor-UCLA Medical Center. Prior approval from the Institutional Review Board (18CR-31752-01 R) at the Lundquist Institute was obtained. Informed consent was obtained from all the patients participating in the study who were not taking any hormonal medications for at least 3 months prior to surgery. The fibroids used in this study were from African Americans (n=3), Hispanics (n=9) and Asians (n=1) women aged 35-57 years (mean 46±6.5 years). The MED12 mutation status of all fibroids was determined by PCR amplification and Sanger sequencing (Laragen Inc. Culver City, CA). […] The missense mutations in exon 2 included c.130G>A (p.Gly44Ser) (n=4), c.131 G>A (p.Gly44Asp) (n=2) and c.131 G>T (p.Gly44Val) (n=1). The tissues were snap frozen and stored in liquid nitrogen for further analysis as previously described (2, 3).
Portions of liver, kidney, heart were dissected and frozen.

Assay [1] deals with leiomyoma smooth muscle cells (LSMC). The assay can be described thus: 3D spheroid culture of leiomyoma smooth muscle cells, qRT-PCR (Example 2). It counts as cell-based, human. The note with it: 3D cultured LSMC, 5 μM, 24 h. How it is done: Leiomyoma smooth muscle cells (LSMC) were cultured in DMEM supplemented with 10% fetal bovine serum until reaching confluence with a change of media every 2-3 days. Cells at passages p1 to p3 were used for all experiments. Isolated LSMC were plated in 6-well plates (1.5×10^5 cells/well) which were coated with 0.5% agarose gel and incubated 48 hours for spheroid formation with size ranging from 50 μm to 250 μm in diameter (1). For blocking IκBα phosphorylation and nuclear translocation of NFκB, LSMC spheroids were treated with 5 μM of Bay 11-7082 (Cayman Chemical, Ann Arbor, Michigan) for 24 hours. […]
Total RNA was extracted from the xenografts using TRIzol (Thermo Fisher Scientific Inc., Waltham, MA). RNA concentration and integrity was determined using a Nanodrop 2000c spectrophotometer (Thermo Scientific, Wilmington, DE) and Agilent 2100 Bioanalyzer (Agilent Technologies, Santa Clara, CA) as previously described (7, 8). […] Quantitative RT-PCR was carried out using SYBR gene expression master mix (Applied Biosystems). […] The expression levels of selected genes were quantified using Invitrogen StepOne System with FBXW2 (F-box and WD repeat domain containing 2) used for normalization (9). All reactions were run in triplicate and relative mRNA expression was determined using the comparative cycle threshold method (2−ΔΔCq), as recommended by the supplier (Applied Biosystems). […]

In the case of `Cc1ccc(S(=O)(=O)/C=C/C#N)cc1` [Bay 11-7082], the “reduction in tumor weight” value with fibroid xenografts is 40%. In addition, in assay [1], the “expression of IL8, TGFB3, Col3A1, CDK2, CCND1, DNMT1 and DNMT3A” value was “significant decrease”.
